Measured values published in paper PMC12250302, “Synthesis, Antimicrobial Activities, and Model of Action of Novel Tetralone Derivatives Containing Aminoguanidinium Moiety” (International Journal of Molecular Sciences, 2025).
In brackets after ≈: the same amount, converted by molar mass.

Tests used:
[1] = tested on: clinical S. aureus isolate LMY46; experiment: MIC and MBC testing, broth microdilution; format: cell-based, Staphylococcus aureus; conditions: Staphylococcus aureus, LMY46
Summary of the method: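 Broth microdilution in MH broth; two-fold serial dilutions of DMSO-dissolved compound; inoculum 1 × 10^6 CFU/mL from log-phase culture; 37 °C, 18 h; triplicates; MBC also read.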

[2] = tested on: clinical S. aureus isolate LMY47; experiment: MIC and MBC testing, broth microdilution; format: cell-based, Staphylococcus aureus; conditions: Staphylococcus aureus, LMY47
Summary of the method: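 MIC and MBC determined by broth microdilution with twofold compound dilutions (from DMSO stock) in MH broth. Log-phase inoculum at 1 × 10^6 CFU/mL; 18 h incubation at 37 °C.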

MRSA-2 [3] = experiment: Fluorescence microscopy assay (DAPI/PI); format: cell-based, Staphylococcus aureus; conditions: vancomycin 4 µg/mL; 2D 4 and 8 μg/mL; 2 h
Description: MRSA-2 was cultivated to the logarithmic growth phase, then washed with PBS and resuspended in PBS until the concentration of bacterial suspension reached 1 × 10^8 CFU/mL. […] Thereafter, the samples were incubated with DAPI (10 μM) and PI (10 μM) in the dark for 15 min. The bacterial cells were then subjected to observation under a fluorescence microscope. DMSO served as the negative controls.

MRSA-2 biofilm = experiment: Biofilm elimination assay (crystal violet); format: cell-based, Staphylococcus aureus; conditions: 0.25 μg/mL, 24 h
Description: The ability of 2D to eliminate biofilm was evaluated. MRSA-2 (1 × 10^6 CFU/mL) was incubated in 96-well plates for 24 h until biofilm formation. The planktonic bacteria were discarded and washed thrice with PBS. […] According to the above method, the OD575 nm value was detected after the following steps: PBS washing, methanol fixation, crystal violet staining, and ethanol incubation.

P. aeruginosa ATCC 27853 = experiment: MIC and MBC testing, broth microdilution; format: cell-based, Pseudomonas aeruginosa; conditions: Pseudomonas aeruginosa
Summary of the method: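 Visible growth was scored after 18 h at 37 °C, and the MIC was taken as the lowest compound concentration showing none. Bacteria were grown to logarithmic phase in MH broth and diluted to 1 × 10^6 CFU/mL before combining with twofold compound dilutions.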

MRSA-2 [4] = experiment: Bacterial DNA and protein leakage experiment; format: cell-based, Staphylococcus aureus; conditions: compared with the control group; 4 h
Description: MRSA-2 was cultured to logarithmic growth phase. The bacterial precipitate was collected, washed twice with PBS (pH = 7.2–7.4), and resuspended in PBS to 1 × 10^7 CFU/mL. […] After centrifugation of 1 mL of the suspension, the supernatant was collected. The protein level was measured by BCA protein concentration kits (Servicebio, Hubei, China), and the DNA level was detected by microspectrophotometer.

MIC ([1]; 18 h, read-out: MIC): 4 µg/mL (≈ 12.6 µM) | MIC ([2]; 18 h, read-out: MIC): 1 µg/mL (≈ 3.16 µM) | MIC (P. aeruginosa ATCC 27853; ATCC27853, 18 h, read-out: MIC): 16 µg/mL (≈ 50.6 µM)
Compound: [H]/N=C(\N)NN=C1CCCc2cc(OCCCCCCC)ccc21 [Compound 2D, (E)-2-(6-(heptyloxy)-3,4-dihydronaphthalen-1(2H)-ylidene)hydrazine-1-carboximidamide]
MBC ([1]; read-out: MBC): 32 µg/mL (≈ 101 µM) | MBC ([2]; read-out: MBC): 4 µg/mL (≈ 12.6 µM) | PI red fluorescence (damaged membranes) (MRSA-2 [3]): a marked tendency to emit red fluorescence | biofilm elimination rate (MRSA-2 biofilm): 21.4% | MBC (P. aeruginosa ATCC 27853; ATCC27853, read-out: MBC): 32 µg/mL (≈ 101 µM) | content of extracellular DNA (MRSA-2 [4]): significantly increased | content of extracellular protein (MRSA-2 [4]): significantly increased
